Strand notation (5' to 3'): a small letter for the sugar, then the base; units joined by * are phosphorothioate-linked, units joined directly phosphodiester-linked; [ ] holds rarer units or linkages, { } end groups; capitals alone tell only the bases. e = 2'-O-(2-methoxyethyl) (MOE); k = constrained ethyl (cEt); [5mC] = 5-methylcytosine; d = 2'-deoxy (DNA); m = 2'-O-methyl
Experiments:
Format in all cases: cell-based
Yap1 mRNA [1] = experiment: Antisense inhibition of human Yap1 in A-431 cells by cEt gapmers, single dose (Example 3, RTS36584)
Description: Modified oligonucleotides were designed to target a Yap1 nucleic acid and were tested for their effect on Yap1 mRNA level in vitro. The modified oligonucleotides were tested in a series of experiments that had similar culture conditions. Cultured A-431 cells at a density of 5,000 cells per well were treated using free uptake with 2,000 nM of modified oligonucleotide. After a treatment period of approximately 48 hours, RNA was isolated from the cells and Yap1 mRNA levels were measured by quantitative real-time RTPCR. Human primer probe set RTS36584 (forward sequence […], designated herein as SEQ ID NO.: 14; reverse sequence […], designated herein as SEQ ID NO.: 15; probe sequence […], designated herein as SEQ ID NO.: 16) was used to measure mRNA levels. Yap1 mRNA levels were normalized to total RNA content, as measured by RIBOGREEN®. Results are presented in the tables below as percent control of the amount of Yap1 mRNA relative to untreated control cells (% UTC). The modified oligonucleotides with percent control values marked with an asterisk (*) target the amplicon region of the primer probe set. Additional assays may be used to measure the potency and efficacy of the modified oligonucleotides targeting the amplicon region.
The newly designed modified oligonucleotides in the Tables below were designed as 3-10-3 cEt gapmers. The gapmers are 16 nucleosides in length, wherein the central gap segment comprises of ten 2′-deoxynucleosides and is flanked by wing segments on the 5′ direction and the 3′ direction comprising three nucleosides each. Each nucleoside in the 5′ wing segment and each nucleoside in the 3′ wing segment has a cEt sugar modification. The internucleoside linkages throughout each gapmer are phosphorothioate (P═S) linkages. All cytosine residues throughout each gapmer are 5-methylcytosines.
“Start site” indicates the 5′-most nucleoside to which the gapmer is targeted in the human gene sequence. “Stop site” indicates the 3′-most nucleoside to which the gapmer is targeted human gene sequence. […] Activity of the modified oligonucleotide may be defined in a different experiment.

Yap1 mRNA [2] = experiment: Antisense inhibition of human Yap1 in SNU-449 cells by modified oligonucleotides, single dose (Example 5, RTS36584)
Procedure, shortened: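 SNU-449 cells (10,000/well) took up 2,000 nM oligonucleotide by free uptake for about 48 h. Yap1 mRNA was measured by qRT-PCR with primer probe set RTS36584 and normalised to RIBOGREEN total RNA. Values are % of untreated control; asterisked oligos target the amplicon region.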

Yap1 mRNA [3] = experiment: Antisense inhibition of human Yap1 in A-431 cells by cEt gapmers, single dose (Example 2, RTS4814)
Procedure, shortened: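 A-431 cells (5,000/well) received 2,000 nM oligonucleotide by free uptake for about 48 h. Yap1 mRNA was then quantified by RT-qPCR with primer probe set RTS4814, normalized to RIBOGREEN total RNA, and reported as % of untreated control; asterisked values mark oligos inside the amplicon.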

[4] = Table 13, A-431 cells, 5,000 cells per well, free uptake, 2,000 nM modified oligonucleotide, approx. 48 hours, RTS36584, normalized to RIBOGREEN, Yap1 mRNA relative to untreated control cells
[5] = Table 8, A-431 cells, 5,000 cells per well, free uptake, 2,000 nM, approximately 48 hours, RTS36584, normalized to RIBOGREEN, Yap1 mRNA relative to untreated control cells
[6] = Table 9, A-431 cells, 5,000 cells per well, free uptake, 2,000 nM, approximately 48 hours, RTS36584, normalized to RIBOGREEN, Yap1 mRNA relative to untreated control cells
[7] = Table 27, Yap1 mRNA by 3-10-3 cEt gapmers targeting SEQ ID NO.: 1, and 2, percent of untreated control
[8] = Yap1 mRNA, percent of untreated control, modified oligonucleotides targeting SEQ ID NO: 1 and 2, Table 47
[9] = Table 34, Yap1 mRNA as percent of untreated control, 3-10-3 cEt gapmers targeting SEQ ID NO: 1 and 2, single dose
[10] = Table 26, Yap1 mRNA by 3-10-3 cEt gapmers targeting SEQ ID NO.: 1, and 2, percent of untreated control
[11] = Table 48, Yap1 mRNA level relative to untreated control, modified oligonucleotides targeting SEQ ID NO.: 1 and 2
[12] = Table 22, Yap1 mRNA as percent of untreated control, 3-10-3 cEt gapmers, single dose

958720 (antisense kG*kT*k[5mC]*dT*dA*d[5mC]*dT*dA*dG*dA*dG*d[5mC]*dT*kG*k[5mC]*k[5mC]) [Compound 958720]
YAP1 (% UTC) (Yap1 mRNA [1]; [4]): 12 % UTC

958403 (antisense k[5mC]*kA*kG*dT*dT*dT*dA*dT*dG*dT*dA*dG*dT*kA*kG*kT) [Compound 958403]
YAP1 (% UTC) (Yap1 mRNA [1]; [5]): 5 % UTC

1075695 (kG*kA*kA*dT*dA*dA*d[5mC]*dA*d[5mC]*d[5mC]*dA*d[5mC]*dA*kT*kT*kA; antisense) [compound 1075695]
YAP1 (% UTC) (Yap1 mRNA [1]; Table 29, Yap1 mRNA as percent of untreated control, 3-10-3 cEt gapmers targeting SEQ ID NO.: 1, and 2): 30 % UTC

958619 (antisense kT*kG*kG*dG*dT*d[5mC]*dT*dA*dG*d[5mC]*d[5mC]*dA*dA*kG*kA*kG) [Compound 958619]
YAP1 (% UTC) (Yap1 mRNA [1]; Table 12, A-431 cells, 5,000 cells per well, free uptake, 2,000 nM modified oligonucleotide, approx. 48 hours, RTS36584, normalized to RIBOGREEN, Yap1 mRNA relative to untreated control cells): 71 % UTC

958656 (kA*k[5mC]*kG*d[5mC]*dA*dA*dT*d[5mC]*dT*dG*dT*dG*dA*kT*k[5mC]*k[5mC]; antisense) [Compound 958656]
YAP1 (% UTC) (Yap1 mRNA [1]; [6]): 48 % UTC

1075789 (kA*kA*kT*dT*dA*d[5mC]*dA*dA*dG*d[5mC]*dT*dA*dA*kT*kG*k[5mC]; antisense) [compound 1075789]
YAP1 (% UTC) (Yap1 mRNA [1]; [7]): 79 % UTC

1074350 (antisense kT*kA*kG*dT*d[5mC]*d[5mC]*dA*d[5mC]*dT*dG*dT*d[5mC]*dT*kG*kT*kA) [compound 1074350]
YAP1 (% UTC) (Yap1 mRNA [1]; Table 28, Yap1 mRNA as percent of untreated control, 3-10-3 cEt gapmers targeting SEQ ID NO.: 1, and 2): 14 % UTC

958721 (antisense kG*kT*kA*dG*dT*dA*dT*dA*dA*dT*dG*dA*dG*kT*kT*kA) [Compound 958721]
YAP1 (% UTC) (Yap1 mRNA [1]; [6]): 1 % UTC

1076141 (kT*kA*k[5mC]*dG*dA*dA*dA*dA*dA*dA*dG*d[5mC]*d[5mC]*kA*kA*k[5mC]; antisense) [compound 1076141]
YAP1 (% UTC) (Yap1 mRNA [1]; [7]): 29 % UTC

1076453 (kG*kT*kA*dA*dT*dA*dT*dT*dG*d[5mC]*dA*dA*dT*k[5mC]*kT*kG) [Compound 1076453]
YAP1 (% UT) (Yap1 mRNA [2]; [8]): 7 % UT
YAP1 (% UTC) (Yap1 mRNA [3]; Table 19, A-431 cells, 5,000 cells per well, free uptake, 2,000 nM modified oligonucleotide, approx. 48 hours, RTS4814, normalized to RIBOGREEN, Yap1 mRNA as percent of untreated control): 1 % UTC

958399 (antisense kG*kA*k[5mC]*d[5mC]*dA*dA*d[5mC]*dT*dA*d[5mC]*dT*dT*dG*kA*kA*kG) [Compound 958399]
YAP1 (% UTC) (Yap1 mRNA [1]; [5]): 45 % UTC

1074132 (k[5mC]*kG*kG*d[5mC]*d[5mC]*d[5mC]*d[5mC]*dG*d[5mC]*dA*dT*d[5mC]*d[5mC]*k[5mC]*k[5mC]*k[5mC]; antisense) [compound 1074132]
YAP1 (% UTC) (Yap1 mRNA [1]; [9]): 96 % UTC

958790 (antisense kG*kA*kA*dA*dA*dG*dA*d[5mC]*dG*dA*d[5mC]*dA*d[5mC]*kA*kG*kT) [Compound 958790]
YAP1 (% UTC) (Yap1 mRNA [1]; [4]): 68 % UTC

1075860 (antisense kA*kA*k[5mC]*dT*dA*dT*dA*dA*dG*d[5mC]*dT*dA*dT*kG*kT*kG) [compound 1075860]
YAP1 (% UTC) (Yap1 mRNA [1]; [9]): 73 % UTC

958735 (antisense kA*kG*k[5mC]*dA*dA*dT*d[5mC]*dT*dT*dG*dT*dG*dG*kA*kT*k[5mC]) [Compound 958735]
YAP1 (% UTC) (Yap1 mRNA [1]; [4]): 7 % UTC

958441 (antisense kG*k[5mC]*kG*dA*d[5mC]*dG*dG*d[5mC]*dT*dG*d[5mC]*dG*dG*kG*k[5mC]*k[5mC]) [Compound 958441]
YAP1 (% UTC) (Yap1 mRNA [1]; [6]): 72 % UTC

1075820 (kT*k[5mC]*kT*dG*dA*dA*d[5mC]*dG*dG*dG*d[5mC]*dT*dG*kT*kT*kG; antisense) [compound 1075820]
YAP1 (% UTC) (Yap1 mRNA [1]; [10]): 27 % UTC

1075764 (k[5mC]*kT*kT*d[5mC]*dA*dA*dG*dG*dA*dA*dG*dG*dT*kG*k[5mC]*kT; antisense) [compound 1075764]
YAP1 (% UTC) (Yap1 mRNA [1]; [9]): 103 % UTC

958820 (kG*kA*k[5mC]*d[5mC]*dA*dG*dT*dA*dA*dG*dA*dA*dG*k[5mC]*k[5mC]*kA; antisense) [Compound 958820]
YAP1 (% UTC) (Yap1 mRNA [1]; [4]): 49 % UTC

1074156 (kA*kG*kG*dG*d[5mC]*dT*dA*d[5mC]*dG*d[5mC]*d[5mC]*d[5mC]*dG*kG*kA*k[5mC]; antisense) [compound 1074156]
YAP1 (% UTC) (Yap1 mRNA [1]; [10]): 96 % UTC

1076456 (antisense k[5mC]*kT*kT*dT*dA*dA*dA*dG*dT*dG*dT*dA*dT*kG*kT*k[5mC]) [Compound 1076456]
YAP1 (% UT) (Yap1 mRNA [2]; [11]): 44 % UT
YAP1 (% UTC) (Yap1 mRNA [3]; [12]): 2 % UTC

1074756 (kG*k[5mC]*kA*d[5mC]*dT*dT*dT*dT*dA*d[5mC]*dA*dT*dT*kA*kG*kG) [Compound 1074756]
YAP1 (% UT) (Yap1 mRNA [2]; [8]): 8 % UT
YAP1 (% UTC) (Yap1 mRNA [3]; Table 18, A-431 cells, 5,000 cells per well, free uptake, 2,000 nM modified oligonucleotide, approx. 48 hours, RTS4814, normalized to RIBOGREEN, Yap1 mRNA as percent of untreated control): 3 % UTC

716444 (kA*kA*kA*dT*dT*dG*dT*d[5mC]*dT*d[5mC]*dA*dT*dG*k[5mC]*k[5mC]*kT) [Compound 716444]
YAP1 (% UT) (Yap1 mRNA [2]; [8]): 46 % UT
YAP1 (% UTC) (Yap1 mRNA [3]; Table 6, A-431 cells, 5,000 cells per well, free uptake, 2,000 nM modified oligonucleotide, approx. 48 hours, RTS4814, normalized to RIBOGREEN, Yap1 mRNA relative to untreated control cells): 40 % UTC

1074726 (antisense kG*kG*kT*dA*dT*dA*dA*d[5mC]*dT*dG*dG*dG*d[5mC]*kA*kA*kA) [Compound 1074726]
YAP1 (% UT) (Yap1 mRNA [2]; [11]): 23 % UT
YAP1 (% UTC) (Yap1 mRNA [3]; Table 20, Yap1 mRNA, percent of untreated control, 3-10-3 cEt gapmers targeting SEQ ID NO.: 1 and 2): 2 % UTC

716524 (antisense kA*k[5mC]*kT*dG*dA*dG*dG*dT*dA*dT*dA*dA*d[5mC]*kT*kG*kG) [Compound 716524]
YAP1 (% UT) (Yap1 mRNA [2]; [11]): 59 % UT
YAP1 (% UTC) (Yap1 mRNA [3]; Table 5, A-431 cells, 5,000 cells per well, free uptake, 2,000 nM modified oligonucleotide, approx. 48 hours, RTS4814, normalized to RIBOGREEN, Yap1 mRNA relative to untreated control cells): 35 % UTC

1074728 (antisense kT*kG*kA*dG*dG*dT*dA*dT*dA*dA*d[5mC]*dT*dG*kG*kG*k[5mC]) [Compound 1074728]
YAP1 (% UT) (Yap1 mRNA [2]; [11]): 14 % UT
YAP1 (% UTC) (Yap1 mRNA [3]; [12]): 3 % UTC

1074727 (antisense kG*kA*kG*dG*dT*dA*dT*dA*dA*d[5mC]*dT*dG*dG*kG*k[5mC]*kA) [Compound 1074727]
YAP1 (% UT) (Yap1 mRNA [2]; [11]): 51 % UT
YAP1 (% UTC) (Yap1 mRNA [3]; Table 21, Yap1 mRNA, percent of untreated control, 3-10-3 cEt gapmers targeting SEQ ID NO.: 1 and 2): 9 % UTC

1198219 (kG*kA*dG*dG*dT*dA*dT*dA*dA*d[5mC]*dT*eG*eG*eG*k[5mC]*kA; antisense) [Compound 1198219]
YAP1 (% UTC) (Yap1 mRNA [2]; Table 43 experiment, SNU-449 cells, 10,000 cells per well, free uptake, 2,000 nM, approximately 48 hours, RTS36584, Yap1 mRNA normalized to RIBOGREEN, relative to untreated control cells): 22 % UTC

1197276 (k[5mC]*kT*kA*dA*mG*dT*dA*dA*dG*dG*dT*dT*dT*k[5mC]*k[5mC]*k[5mC]; antisense) [Compound 1197276]
YAP1 (% UT) (Yap1 mRNA [2]; Table 51, Yap1 mRNA remaining as percent of untreated control (UT), SNU-449 cells, single dose): 44 % UT
